pIC50: −log10 of the molar value.
Columns and labels:
HPK1 protein [1] = target: T1, HPK1 protein (Homo sapiens, UniProt Q92918); assay: HPK1 enzyme inhibition assay (ADP-Glo); format: biochemical; settings: MBP substrate, ATP, ADP-Glo readout
T1 construct: purchased Signal Chem M23-11G-10
T1 sequence (Q92918 1-346 limits assumed): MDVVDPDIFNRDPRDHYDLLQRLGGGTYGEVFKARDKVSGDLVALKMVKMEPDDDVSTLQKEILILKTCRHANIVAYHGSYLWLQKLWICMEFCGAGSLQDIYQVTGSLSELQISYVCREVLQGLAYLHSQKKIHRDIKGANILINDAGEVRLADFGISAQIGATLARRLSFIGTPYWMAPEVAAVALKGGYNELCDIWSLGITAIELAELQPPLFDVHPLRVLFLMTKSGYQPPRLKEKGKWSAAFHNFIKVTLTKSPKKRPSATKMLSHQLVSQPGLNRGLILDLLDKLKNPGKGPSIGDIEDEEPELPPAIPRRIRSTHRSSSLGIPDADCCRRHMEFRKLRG
Summary of the method: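 Recombinant human HPK1 preincubated with compound 60 min at 25 °C, then reaction with MBP (0.2 ug/ul, 2× stock) and ATP (20 μM, 2× stock) 60 min at 25 °C. ADP formed detected by ADP-Glo after ATP depletion and conversion to ATP; IC50 calculated from signal.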

HPK1 protein [2] = target: T2, HPK1 protein (Homo sapiens, UniProt Q92918); assay: HPK1 protein degradation in human PBMC (western blot); format: cell-based; settings: 18 h incubation
T2 construct: Frozen human PBMC were purchased from Shanghai OribioTech; host or cells: human PBMC
Procedure: HPK1 protein degradation in human PBMC: Frozen human PBMC were purchased from Shanghai OribioTech and recovered with culture medium (RMPI1640) prior to use. The cells were then incubated with a variety of concentrations of compound. After incubation for 18 h, the cells were collected and lysed. The protein concentration was determined by BCA protein assay kit from Thermo (23227). The HPK1 protein level was determined by western blots, using anti-human HPK1 polyclonal antibody from CST (4472S). Proteins were loaded into each well of the pre-casting gels and subjected to electrophoretic separation by SDS-PAGE. The protein resolved by SDS-PAGE were transferred to PVDF, blocked by 5% skim milk, and probed with anti-human HPK1 antibody or β-actin antibody from CST (3700S), using standard western blotting procedure.
T2 sequence (Q92918 whole entry): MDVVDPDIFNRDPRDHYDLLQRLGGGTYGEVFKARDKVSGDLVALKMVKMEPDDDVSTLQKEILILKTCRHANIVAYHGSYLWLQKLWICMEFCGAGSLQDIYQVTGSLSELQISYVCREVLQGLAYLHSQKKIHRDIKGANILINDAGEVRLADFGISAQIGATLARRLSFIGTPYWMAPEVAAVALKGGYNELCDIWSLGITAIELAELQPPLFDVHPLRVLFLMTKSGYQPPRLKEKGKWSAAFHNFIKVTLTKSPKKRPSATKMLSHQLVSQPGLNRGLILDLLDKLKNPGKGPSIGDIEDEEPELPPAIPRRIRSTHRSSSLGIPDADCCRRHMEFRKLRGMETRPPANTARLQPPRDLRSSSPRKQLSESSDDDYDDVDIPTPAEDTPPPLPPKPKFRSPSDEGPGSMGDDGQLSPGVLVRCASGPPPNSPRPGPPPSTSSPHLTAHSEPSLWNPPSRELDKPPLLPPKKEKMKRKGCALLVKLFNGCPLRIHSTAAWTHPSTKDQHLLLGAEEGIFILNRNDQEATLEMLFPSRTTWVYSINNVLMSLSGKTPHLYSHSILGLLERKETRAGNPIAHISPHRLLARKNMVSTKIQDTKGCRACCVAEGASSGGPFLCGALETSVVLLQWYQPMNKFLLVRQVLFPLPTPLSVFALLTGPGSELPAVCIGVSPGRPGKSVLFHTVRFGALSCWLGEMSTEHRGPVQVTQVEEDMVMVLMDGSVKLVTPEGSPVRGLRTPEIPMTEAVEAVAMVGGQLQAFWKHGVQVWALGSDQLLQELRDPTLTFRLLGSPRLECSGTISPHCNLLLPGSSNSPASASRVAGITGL

HPK1 protein [3] = target: T3, HPK1 protein (Mus musculus, UniProt P70218); assay: HPK1 protein degradation in mouse pan T cell (western blot); format: cell-based; settings: 18 h incubation
T3 construct: the CD3+ T cell population was isolated from spleenocytes of mice; endogenous in cells; host or cells: primary mouse splenic CD3+ (pan) T cells
T3 sequence (P70218 1-827): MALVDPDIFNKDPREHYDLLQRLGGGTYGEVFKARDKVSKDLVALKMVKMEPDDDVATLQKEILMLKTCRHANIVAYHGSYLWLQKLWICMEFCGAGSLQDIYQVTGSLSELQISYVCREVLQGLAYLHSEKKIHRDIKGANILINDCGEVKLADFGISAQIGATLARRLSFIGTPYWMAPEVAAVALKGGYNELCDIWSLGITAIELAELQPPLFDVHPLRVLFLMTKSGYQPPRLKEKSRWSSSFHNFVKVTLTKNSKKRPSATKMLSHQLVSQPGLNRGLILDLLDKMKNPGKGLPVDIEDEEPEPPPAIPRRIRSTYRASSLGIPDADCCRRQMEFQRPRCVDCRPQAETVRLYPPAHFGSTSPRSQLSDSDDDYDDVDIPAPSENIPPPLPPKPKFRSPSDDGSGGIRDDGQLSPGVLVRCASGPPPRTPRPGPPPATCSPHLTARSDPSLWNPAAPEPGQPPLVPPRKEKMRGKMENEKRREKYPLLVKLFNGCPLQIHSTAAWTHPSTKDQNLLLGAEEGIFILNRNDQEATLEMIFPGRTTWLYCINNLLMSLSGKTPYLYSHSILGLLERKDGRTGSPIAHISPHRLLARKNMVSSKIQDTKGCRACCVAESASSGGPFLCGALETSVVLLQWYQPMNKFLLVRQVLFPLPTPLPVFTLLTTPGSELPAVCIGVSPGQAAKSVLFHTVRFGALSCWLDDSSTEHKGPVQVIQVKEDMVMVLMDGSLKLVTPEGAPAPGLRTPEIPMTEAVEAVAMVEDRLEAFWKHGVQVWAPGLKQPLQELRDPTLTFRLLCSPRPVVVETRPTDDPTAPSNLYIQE
Procedure: HPK1 protein degradation in mouse pan T cell: the CD3+ T cell population was isolated from spleenocytes of mice by using Pan T cell isolation kit from Miltenyi Biotec (130-095-130) following manufacture's instruction. The isolated T cells were then incubated with a variety of concentrations of compound. After incubation for 18 h, the cells were collected and lysed. The protein concentration was determined by BCA protein assay kit from Thermo (23227). The HPK1 protein level was determined by western blots, using anti-human HPK1 polyclonal antibody from CST (4472). Proteins were loaded into each well of the pre-casting gels and subjected to electrophoretic separation by SDS-PAGE. The protein resolved by SDS-PAGE were transferred to PVDF, blocked by 5% skim milk and probed with anti-human HPK1 antibody or β-actin antibody from CST (3700S), using following standard western blotting procedure.

HPK1 p-SLP-76 = HPK1 p-SLP-76 inhibition assay in human PBMC (HTRF); format: cell-based; settings: 6 h compound, anti-CD3 stimulation 20 min
Procedure: Human PBMC were purchased from OriCells (FPB004F-C). Before compound treatment, PBMC were starved in PRMI-1640 medium supplemented with 0.5% FBS overnight. The cell density was adjusted to 1*10^7 cells/mL in assay medium (RPMI-1640 no phenol red with 0.5% FBS) and 16 μL cell suspension was transferred per well to a 384-well plate (Corning #3765). 6× solution of test compound was prepared in assay medium and 4 μL was added per well to the 384-well plate. The plate was then incubated at 37° C., 5% CO2 for 6 h. PBMC in 384-well plate were stimulated with anti-CD3 (BD Biosciences #555329, final conc. is 10 ug/mL) for 20 min at 37° C., 5% CO2 by adding 4 μL 6× antibody solution per well. Phospho-SLP76 HTRF kit was purchased from Cisbio (63ADK076PEH). 8 μL 4× Lysis Buffer was added to 384-well plate after anti-CD3 stimulation. The plate was centrifuged at 1,000 rpm for 1 min, shaken at 250 rpm for 60 min and centrifuged again at 1,000 rpm for 5 min. Afterwards the cell lysates were transferred to the assay plate (Greiner #784075) with 16 μL per well. 4 μL detection antibody mix per well prepared in Detection Buffer was added to the assay plate, followed by centrifugation at 1,000 rpm for 1 min and incubation at 25° C. overnight.

Structure (SMILES) | pIC50 (HPK1 protein [1]) | Dmax (HPK1 protein [2]) | Dmax (HPK1 protein [3]) | pIC50 (HPK1 p-SLP-76)
CC(COC1CCN(c2cc3c(cc2F)C(=O)N(C2CCC(=O)NC2=O)C3=O)CC1)N1CCN(c2cccc(-c3cnc4[nH]cc(C5CC5)c4c3Cl)c2)C(=O)C1 (stereo not drawn) [Example 49, 5-(4-(2-(4-(3-(4-chloro-3-cyclopropyl-1H-pyrrolo[2,3-b]pyridin-5-yl)phenyl)-3-oxopiperazin-1-yl)propoxy)piperidin-1-yl)-2-(2,6-dioxopiperidin-3-yl)-6-fluoroisoindoline-1,3-dione] | 6.00 to 7.00 | < 50% | – | –
CCc1c[nH]c2ncc(-c3cccc(N4CCN(C(=O)CCN5CCN(C(=O)c6ccc(C)c(N7CCC(=O)NC7=O)c6)CC5)CC4=O)c3)c(Cl)c12 [Example 50, 1-(5-(4-(3-(4-(3-(4-chloro-3-ethyl-1H-pyrrolo[2,3-b]pyridin-5-yl)phenyl)-3-oxopiperazin-1-yl)-3-oxopropyl)piperazine-1-carbonyl)-2-methylphenyl)dihydro pyrimidine-2,4 (1H,3H)-dione] | ≥ 8.00 | – | 80% | < 5.00
O=C1CCC(N2C(=O)c3ccc(N4CCN(CCCN5CCN(c6cccc(-c7cnc8[nH]cc(C9CC9)c8c7Cl)n6)C(=O)C5)CC4)cc3C2=O)C(=O)N1 (stereo not drawn) [Example 80, 5-(4-(3-(4-(6-(4-chloro-3-cyclopropyl-1H-pyrrolo[2,3-b]pyridin-5-yl)pyridin-2-yl)-3-oxopiperazin-1-yl)propyl)piperazin-1-yl)-2-(2,6-dioxopiperidin-3-yl)isoindoline-1,3-dione] | ≥ 8.00 | – | – | ≥ 6.52
O=C1CCC(c2ccc(OC3CCN(CCCN4CCN(c5cccc(-c6cnc7[nH]cc(C8CC8)c7c6Cl)c5)C(=O)C4)CC3)cc2)C(=O)N1 (stereo not drawn) [Example 86] | ≥ 8.00 | – | – | 5.52 to 6.52
O=C1CCC(c2ccc(C3CCN(CCCCN4CCN(c5cccc(-c6cnc7[nH]cc(C8CC8)c7c6Cl)c5)C(=O)C4)CC3)cc2)C(=O)N1 (stereo not drawn) [Example 87] | ≥ 8.00 | – | – | ≥ 6.52
O=C1CCC(N2C(=O)c3ccc(N4CCN(CCCS(=O)(=O)N5CCN(c6cccc(-c7cnc8[nH]cc(CC(F)F)c8c7Cl)c6)C(=O)C5)CC4)cc3C2=O)C(=O)N1 (stereo not drawn) [Example 106] | ≥ 8.00 | – | – | 5.52 to 6.52
O=C1CCN(c2cnc3cc(C4=CCN(CCCN5CCN(c6cccc(-c7cnc8[nH]cc(C9CC9)c8c7Cl)c6)C(=O)C5)CC4)ccn23)C(=O)N1 [Example 93, 1-(7-(1-(3-(4-(3-(4-chloro-3-cyclopropyl-1H-pyrrolo[2,3-b]pyridin-5-yl)phenyl)-3-oxopiperazin-1-yl)propyl)-1,2,3,6-tetrahydropyridin-4-yl)imidazo[1,2-a]pyridin-3-yl)dihydropyrimidine-2,4 (1H,3H)-dione] | ≥ 8.00 | – | – | 5.52 to 6.52
Cn1nc(C2CCC(=O)NC2=O)c2ccc(C3CCN(CCCN4CCN(c5cccc(-c6cnc7[nH]cc(C8CC8)c7c6Cl)c5)C(=O)C4)CC3)cc21 (stereo not drawn) [Example 92, 3-(6-(1-(3-(4-(3-(4-chloro-3-cyclopropyl-1H-pyrrolo[2,3-b]pyridin-5-yl)phenyl)-3-oxopiperazin-1-yl)propyl)piperidin-4-yl)-1-methyl-1H-indazol-3-yl)piperidine-2,6-dione] | ≥ 8.00 | – | – | 5.52 to 6.52
O=C1CCC(N2C(=O)c3ccc(C4=CCN(CCCN5CCN(c6cccc(-c7cnc8[nH]cc(C9CC9)c8c7Cl)c6)C(=O)C5)CC4)cc3C2=O)C(=O)N1 (stereo not drawn) [Example 70, 5-(1-(3-(4-(3-(4-chloro-3-cyclopropyl-1H-pyrrolo[2,3-b]pyridin-5-yl)phenyl)-3-oxopiperazin-1-yl)propyl)-1,2,3,6-tetrahydropyridin-4-yl)-2-(2,6-dioxopiperidin-3-yl)isoindoline-1,3-dione] | 7.00 to 8.00 | – | – | 5.52 to 6.52
O=C1CCC(Nc2ccc(C3CCN(CCCS(=O)(=O)N4CCN(c5cccc(-c6cnc7[nH]cc(C8CC8)c7c6Cl)c5)C(=O)C4)CC3)cc2)C(=O)N1 (stereo not drawn) [Example 104] | ≥ 8.00 | – | – | ≥ 6.52
O=C1CCC(N2Cc3cc(C4CCN(CCCN5CCN(c6cccc(-c7cnc8[nH]cc(C9CC9)c8c7Cl)n6)C(=O)C5)CC4)ccc3C2=O)C(=O)N1 (stereo not drawn) [Example 82, 3-(5-(1-(3-(4-(6-(4-chloro-3-cyclopropyl-1H-pyrrolo[2,3-b]pyridin-5-yl)pyridin-2-yl)-3-oxopiperazin-1-yl)propyl)piperidin-4-yl)-1-oxoisoindolin-2-yl)piperidine-2,6-dione] | ≥ 8.00 | – | – | ≥ 6.52
O=C1CCC(N2Cc3cc(C4=CCN(CCCN5CCN(c6cccc(-c7cnc8[nH]cc(C9CC9)c8c7Cl)n6)C(=O)C5)CC4)ccc3C2=O)C(=O)N1 (stereo not drawn) [Example 83] | ≥ 8.00 | – | – | ≥ 6.52
O=C1CCC(N2C(=O)c3ccc(C4CCN(CCCN5CCN(c6cccc(-c7cnc8[nH]cc(C9CC9)c8c7Cl)n6)C(=O)C5)CC4)cc3C2=O)C(=O)N1 (stereo not drawn) [Example 84, 5-(1-(3-(4-(6-(4-chloro-3-cyclopropyl-1H-pyrrolo[2,3-b]pyridin-5-yl)pyridin-2-yl)-3-oxopiperazin-1-yl)propyl)piperidin-4-yl)-2-(2,6-dioxopiperidin-3-yl)isoindoline-1,3-dione] | ≥ 8.00 | – | – | ≥ 6.52
Cn1nc(N2CCC(=O)NC2=O)c2ccc(C3CCN(CCCN4CCN(c5cccc(-c6cnc7[nH]cc(C8CC8)c7c6Cl)c5)C(=O)C4)CC3)cc21 [Example 77, 1-(6-(1-(3-(4-(3-(4-chloro-3-cyclopropyl-1H-pyrrolo[2,3-b]pyridin-5-yl)phenyl)-3-oxopiperazin-1-yl)propyl)piperidin-4-yl)-1-methyl-1H-indazol-3-yl)dihydro pyrimidine-2,4 (1H,3H)-dione] | ≥ 8.00 | – | 95% | ≥ 6.52
